Experimental data taken from ChEMBL document CHEMBL1135798, “Structure-activity relationships of the antimalarial agent artemisinin. 6. The development of predictive in vitro potency models using CoMFA and HQSAR methodologies” (2002).

Test system: Plasmodium falciparum
Assay: Antimalarial activity against chloroquine-resistant, mefloquine-sensitive Plasmodium falciparum W2
Assay type: functional

| Compound | Log RA |
| --- | --- |
| CC(C)CCN1C(=O)C[C@@H]2CC[C@@H](C)[C@@H]3CC[C@@]4(C)OO[C@@]23[C@H]1O4 | -0.04 |
| CO[C@H]1O[C@@]2(C)CC[C@H]3CCC[C@@H](CCOC(=O)CNC(=O)OC(C)(C)C)[C@]31OO2 | -0.04 |
| CO[C@H]1O[C@@]2(C)CC[C@H]3CCC[C@@H](CCOCc4cc[n+](C)cc4)[C@]31OO2 | -0.9 |
| C/C=C1\C(=O)O[C@@H]2O[C@@]3(C)CC[C@H]4[C@H](C)CC[C@@H]1[C@@]24OO3 | -0.36 |
| CCCC(=O)OCC(CC)(CC)OOC(C)(C)C | -4 |
| CCOC1O[C@@H]2O[C@@]3(C)CC[C@H]4[C@H](C)CC[C@@H]([C@H]1CC)[C@@]24OO3 (stereo not given in full) | 0.5 |
| C[C@@H]1CC[C@@H]2[C@]34OO[C@](C)(CC[C@@H]13)O[C@H]4OC(Nc1ccccc1)[C@@]2(C)Br (stereo not given in full) | 0.18 |
| CC[C@@]12CC[C@H]3[C@H](C)CC[C@H]4CCO[C@H](O1)[C@]43OO2 | -1 |
| CO[C@H]1OC2(C)CC[C@H]3CCC[C@@H](CCOCc4ccc(F)cc4)C31OO2 (stereo not given in full) | 0.38 |
| C=C1C(=O)O[C@@H]2O[C@@]3(C)CC[C@H]4[C@H](C)CC[C@@H]1[C@@]24OO3 [ARTEMISITENE] | -0.89 |
| CCC(=O)OCC(CC)(CC)OOC(C)(C)C | -4 |
| C[C@@H]1CC[C@H]2[C@@H](C)CO[C@@H]3O[C@@]4(C)CC[C@@H]1[C@]32O4 | -4 |
| CCC[C@H]1C(=O)O[C@@H]2O[C@@]3(C)CC[C@H]4[C@H](C)CC[C@@H]1[C@@]24OO3 | 1.13 |
| COC(=O)C[C@H](C)OC1O[C@@H]2O[C@@]3(C)CC[C@H]4[C@H](C)CC[C@@H]([C@H]1C)[C@@]24OO3 (stereo not given in full) | 0.87 |
| COC(=O)[C@@H](C)COC1O[C@@H]2O[C@@]3(C)CC[C@H]4[C@H](C)CC[C@@H]([C@H]1C)[C@@]24OO3 (stereo not given in full) | 1.79 |
| C[C@H]1[C@@H](O[C@H](C)c2ccc(C(=O)O)cc2)O[C@@H]2O[C@@]3(C)CC[C@H]4[C@H](C)CC[C@@H]1[C@@]24OO3 | 0.12 |
| C[C@@H]1CC[C@H]2CC(=O)O[C@@H]3O[C@@]4(CCc5ccccc5)CC[C@@H]1[C@@]23O4 | -4 |
| CCCCC[C@H]1CO[C@@H]2O[C@@]3(C)CC[C@H]4[C@H](C)CC[C@@H]1[C@@]24OO3 | 0.16 |
| CC1(C)C[C@]2(c3ccccc3)CC[C@@](c3ccccc3)(C1)OO2 | -2.17 |
| C[C@@H]1CC[C@H]2CC(=O)O[C@@H]3O[C@H]4CC[C@@H]1[C@@]23OO4 | -2.76 |
| C[C@@H]1CC[C@H]2[C@@H](CCCc3ccc(Cl)cc3)C(=O)O[C@@H]3O[C@@]4(C)CC[C@@H]1[C@]32OO4 | 1.37 |
| C[C@@H]1CC[C@H]2C(=O)C(=O)O[C@@H]3O[C@@]4(C)CC[C@@H]1[C@]32OO4 | -2.47 |
| CC(C)C[C@@]12CC[C@H]3[C@H](C)CC[C@H]4CC(=O)O[C@H](O1)[C@]43O2 | -4 |
| C[C@@H]1CC[C@H]2[C@@H](CCCc3ccccc3)C(=O)O[C@@H]3O[C@@]4(C)CC[C@@H]1[C@]32O4 | -4 |

| Compound | Log RA |
| --- | --- |
| C[C@H]1[C@@H](O)O[C@@H]2O[C@@]3(C)CC[C@H]4[C@H](C)CC[C@@H]1[C@@]24O3 | -4 |
| COC(=O)c1ccc(C(=O)OCC[C@@H]2CCC[C@@H]3CC[C@@]4(C)OO[C@]32[C@@H](OC)O4)cc1 | 0.27 |
| CCOC1O[C@@H]2O[C@@]3(C)CC[C@H]4[C@H](C)CC[C@H]([C@@]24OO3)[C@@]1(C)O (stereo not given in full) | -1.13 |
| CO[C@H]1O[C@@]2(C)CC[C@H]3CCC[C@@H](CCOS(=O)(=O)c4cccc5c(N(C)C)cccc45)[C@]31OO2 | 0.03 |
| CC1=CO[C@@H]2O[C@@]3(C)CC[C@H]4[C@H](C)CC[C@@H]1[C@@]24OO3 | 0.78 |
| C=C/N=N/[C@H]1C(=O)O[C@@H]2O[C@]3(C)CC[C@H]4[C@H](C)CC[C@@H]1[C@@]24OO3 | -2.7 |
| C[C@@H]1CC[C@H]2CC(=O)N(C)[C@@H]3O[C@@]4(C)CC[C@@H]1[C@@]23OO4 | 0.7 |
| C[C@@H]1CC[C@H]2[C@@H](CCCCc3ccccc3)C(=O)O[C@@H]3O[C@@]4(C)CC[C@@H]1[C@]32OO4 | 0.63 |
| C[C@@H]1CC[C@H]2[C@@H](C)CO[C@@H]3O[C@@]4(C)CC[C@@H]1[C@]32OO4 | 0.75 |
| CCCCC[C@H]1C(=O)O[C@@H]2O[C@@]3(C)CC[C@H]4[C@H](C)CC[C@@H]1[C@@]24OO3 | 1.02 |
| CC[C@H]1C(=O)O[C@@H]2O[C@@]3(C)CC[C@H]4[C@H](C)CC[C@@H]1[C@@]24OO3 | 1.4 |
| CCC[C@@H](Cc1ccccc1)OC1O[C@@H]2O[C@@]3(C)CC[C@H]4[C@H](C)CC[C@@H]([C@H]1C)[C@@]24OO3 (stereo not given in full) | 0.31 |
| CC[C@H]1CO[C@@H]2O[C@@]3(C)CC[C@H]4[C@H](C)CC[C@@H]1[C@@]24OO3 | 0.67 |
| CCC[C@@]12CC[C@H]3[C@H](C)CC[C@H]4CC(=O)O[C@H](O1)[C@]43OO2 | 0.83 |
| C[C@@H]1CC[C@@H]2[C@@H](C)CO[C@@H]3C[C@]4(C)CC[C@@H]1[C@]23OO4 | -0.24 |
| C[C@@H]1CC[C@H]2[C@H](C)C(=O)O[C@@H]3O[C@@]4(C)CC[C@@H]1[C@]32OO4 | -0.17 |
| C[C@@H]1CC[C@H]2[C@@H](C)C(=O)N(Cc3ccccn3)[C@@H]3O[C@@]4(C)CC[C@@H]1[C@@]23O4 | -4 |
| CCCC[C@H]1CO[C@@H]2O[C@@]3(C)CC[C@H]4[C@H](C)CC[C@@H]1[C@@]24OO3 | 1.32 |
| CCCC[C@H]1C(=O)O[C@@H]2O[C@@]3(CCCc4ccc(Cl)cc4)CC[C@H]4[C@H](C)CC[C@@H]1[C@@]24OO3 | -0.28 |
| C[C@@H]1CC[C@H]2CC(=O)N(Cc3ccc(Cl)cc3)[C@@H]3O[C@@]4(C)CC[C@@H]1[C@@]23OO4 | -0.16 |
| C[C@@H]1CC[C@H]2CC(=O)O[C@@H]3O[C@@]4(CCc5ccccc5)CC[C@@H]1[C@@]23OO4 | -2 |
| CC(C)CCC[C@H]1C(=O)O[C@@H]2O[C@@]3(C)CC[C@H]4[C@H](C)CC[C@@H]1[C@@]24OO3 | -0.04 |
| C[C@@H]1CC[C@@H]2[C@]34OO[C@](C)(CC[C@@H]13)O[C@H]4OC(Nc1cccc(F)c1)[C@@]2(C)Br (stereo not given in full) | 0.79 |
| C[C@@H]1CC[C@@H]2[C@]34OO[C@](C)(CC[C@@H]13)O[C@H]4OC(O)[C@@]21CO1 (stereo not given in full) | -0.62 |

| Compound | Log RA |
| --- | --- |
| CCCC[C@@]12CC[C@H]3[C@H](C)CC[C@H]4CC(=O)O[C@H](O1)[C@]43OO2 | -0.74 |
| CC(C)C[C@@]12CC[C@H]3[C@H](C)CC[C@H]4CC(=O)O[C@H](O1)[C@]43OO2 | -0.35 |
| CCCC[C@H]1CO[C@@H]2O[C@@]3(C)CC[C@H]4[C@H](C)CC[C@@H]1[C@@]24O3 | -4 |
| CCOC(=O)[C@@H](O[C@H]1O[C@@H]2O[C@@]3(C)CC[C@H]4[C@H](C)CC[C@@H]([C@H]1C)[C@@]24OO3)c1ccccc1 | 1.25 |
| C[C@@H]1CC[C@H]2[C@@H](C)C(CC(F)F)O[C@@H]3O[C@@]4(C)CC[C@@H]1[C@]32OO4 (stereo not given in full) | 0.11 |
| C[C@@H]1CC[C@@H]2[C@]34OO[C@](C)(CC[C@@H]13)O[C@H]4OC(OCC(F)(F)F)[C@@]2(C)O (stereo not given in full) | 0.29 |
| CC(C)CN1C(=O)[C@H](C)[C@@H]2CC[C@@H](C)[C@@H]3CC[C@@]4(C)OO[C@]32[C@H]1O4 | 1.03 |
| CCO[C@H]1O[C@@H]2O[C@@]3(C)CC[C@H]4C(C)[C@@H](O)C[C@@H]([C@H]1C)[C@@]24OO3 (stereo not given in full) | 0.34 |
| COC(=O)c1ccc(COC2O[C@@H]3O[C@@]4(C)CC[C@H]5[C@H](C)CC[C@@H]([C@H]2C)[C@@]35OO4)cc1 (stereo not given in full) | -0.07 |
| C[C@@H]1CC[C@@H]2[C@]34OO[C@](C)(CC[C@@H]13)O[C@H]4OC(=O)[C@@]2(Br)CBr | -1.64 |
| CO[C@H]1O[C@@]2(C)CC[C@H]3CCC[C@@H](CCOCc4ccncc4)[C@]31OO2 | 0.14 |
| CO[C@H]1O[C@]2(C)OO[C@]13[C@H](CCO)CCC[C@@H]3C[C@H]2C | -1.8 |
| C[C@@H]1CC[C@H]2[C@@H](CCCc3ccccc3)C(=O)O[C@@H]3O[C@@]4(C)CC[C@@H]1[C@]32OO4 | 0.78 |
| C[C@@H]1CC[C@H]2[C@@H](CCCCc3ccccc3)C(=O)O[C@@H]3O[C@@]4(C)CC[C@@H]1[C@]32O4 | -4 |
| CCOC1O[C@@H]2O[C@@]3(C)CC[C@H]4[C@H](C)CC[C@@H]([C@H]1C)[C@@]24OO3 (stereo not given in full) | 0.34 |
| CO[C@H]1O[C@]2(C)OO[C@]13[C@H](CCO)CCC[C@@H]3C[C@@H]2C | 0.23 |
| CCCCC1O[C@@H]2O[C@@]3(C)CC[C@H]4[C@H](C)CC[C@@H]([C@H]1C)[C@@]24OO3 (stereo not given in full) | 0.06 |
| C[C@@H]1CC[C@@H]2[C@]34OO[C@](C)(CC[C@@H]13)O[C@H]4OC(Nc1ccccn1)[C@@]2(C)Br (stereo not given in full) | -0.09 |
| CCC1(CC)OO[C@]23CCCCC2[C@@H](C)C(=O)OC3O1 (stereo not given in full) | -0.6 |
| CCO[C@H]1O[C@@H]2O[C@@]3(C)CC[C@H]4C(C=O)CC[C@@H]([C@H]1C)[C@@]24OO3 (stereo not given in full) | 0.21 |
| CO[C@H]1O[C@]2(C)OO[C@]13[C@H](CCO)CCC[C@@H]3CC2(C)C | -1.8 |
| C[C@@H]1CC[C@H]2C3(CC3)C(=O)O[C@@H]3O[C@@]4(C)CC[C@@H]1[C@]32OO4 | -0.94 |
